The values below come from PubChem BioAssay AID256 (DTP/NCI, 2004).

The assay deals with CD2F1 mice, L1210 leukemia ip, survival T/C. The assay is described as follows: NCI In Vivo Anticancer Drug Screen. Data for tumor model L1210 Leukemia (intraperitoneal) in CD2F1 (CDF1) mice. The conditions noted are these: higher = longer survival. A digest of the protocol:
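Mice carrying a transplanted tumor received test compound or vehicle alone. The value is the measurement in the treated group divided by that in the vehicle-treated control group.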

Setting [1] is: endpoint: mean survival time, dose: 100.0 mg/kg/injection, schedule: Q04DX002 (ip), vehicle: saline with Tween-80.
The mark [2] stands for this setting: endpoint: mean survival time, dose: 200.0 mg/kg/injection, schedule: Q04DX002 (ip), vehicle: saline with Tween-80.
Where [3] appears, read: endpoint: mean survival time, dose: 100.0 mg/kg/injection, schedule: Q01DX009 (ip), vehicle: saline with Tween-80.
Setting [4] is: endpoint: mean survival time, dose: 200.0 mg/kg/injection, schedule: Q01DX009 (ip), vehicle: saline with Tween-80.
Setting [5] is: endpoint: mean survival time, dose: 50.0 mg/kg/injection, schedule: Q01DX009 (ip), vehicle: saline with Tween-80.
Setting [6] is: endpoint: mean survival time, dose: 100.0 mg/kg/injection, schedule: Q04DX003 (ip), vehicle: saline with Tween-80.
Setting [7] is: endpoint: mean survival time, dose: 200.0 mg/kg/injection, schedule: Q04DX003 (ip), vehicle: saline with Tween-80.
Setting [8] is: endpoint: mean survival time, dose: 400.0 mg/kg/injection, schedule: Q04DX003 (ip), vehicle: saline with Tween-80.

Several values for one entry are separate records, joined by “and”; a condition that tells them apart may be missing. Equal entries are not always repeated. Inconclusive results and toxic doses are left out.

Consider `Nc1nc2ncccc2[nH]1`, for which the T/C runs as follows: (endpoint: mean survival time, dose: 12.5 mg/kg/injection, schedule: Q01DX005 (ip), vehicle: other) 108 % of control; (endpoint: mean survival time, dose: 25.0 mg/kg/injection, schedule: Q01DX005 (ip), vehicle: other) 107 % of control; (endpoint: mean survival time, dose: 50.0 mg/kg/injection, schedule: Q01DX005 (ip), vehicle: other) 104 % of control; (endpoint: mean survival time, dose: 100.0 mg/kg/injection, schedule: Q01DX005 (ip), vehicle: other) 101 % of control; (endpoint: mean survival time, dose: 200.0 mg/kg/injection, schedule: Q01DX005 (ip), vehicle: other) 103 % of control.
In the case of `Cc1nc(C#N)c(N)nc1Cl`, the T/C was 109 % of control (endpoint: mean survival time, dose: 100.0 mg/kg/injection, schedule: Q04DX002 (ip), vehicle: Klucel (hydroxypropylcellulose) (HPC)); 91 % of control (endpoint: mean survival time, dose: 200.0 mg/kg/injection, schedule: Q04DX002 (ip), vehicle: Klucel (hydroxypropylcellulose) (HPC)); 109 % of control (endpoint: mean survival time, dose: 400.0 mg/kg/injection, schedule: Q04DX002 (ip), vehicle: Klucel (hydroxypropylcellulose) (HPC)).
Turning to `C=CCC(C(=O)O)(c1ccccc1)c1ccccc1`, the T/C is 95 % of control (endpoint: mean survival time, dose: 50.0 mg/kg/injection, schedule: Q01DX009 (ip), vehicle: Klucel (hydroxypropylcellulose) (HPC)); 98 % of control (endpoint: mean survival time, dose: 100.0 mg/kg/injection, schedule: Q01DX009 (ip), vehicle: Klucel (hydroxypropylcellulose) (HPC)); 98 % of control (endpoint: mean survival time, dose: 200.0 mg/kg/injection, schedule: Q01DX009 (ip), vehicle: Klucel (hydroxypropylcellulose) (HPC)).
For `O=C(O)c1c(Cl)c(Cl)c(Cl)c(Cl)c1C(=O)O`, the T/C is 97 % of control under setting [1]; 101 % of control under setting [2]; 105 % of control (endpoint: mean survival time, dose: 400.0 mg/kg/injection, schedule: Q04DX002 (ip), vehicle: saline with Tween-80).
In the case of `COc1ccc(N2CC=C(c3ccccc3)OP2(=O)N(CCCl)CCCl)cc1` (stereo unspecified), the T/C (endpoint: mean survival time, dose: 31.25 mg/kg/injection, schedule: Q01DX001 (ip), vehicle: saline) was 102 % of control; the T/C (endpoint: mean survival time, dose: 62.5 mg/kg/injection, schedule: Q01DX001 (ip), vehicle: saline) was 100 % of control; the T/C (endpoint: mean survival time, dose: 125.0 mg/kg/injection, schedule: Q01DX001 (ip), vehicle: saline) is 100 % of control; the T/C (endpoint: mean survival time, dose: 250.0 mg/kg/injection, schedule: Q01DX001 (ip), vehicle: saline) is 100 % of control; the T/C (endpoint: mean survival time, dose: 500.0 mg/kg/injection, schedule: Q01DX001 (ip), vehicle: saline) is 100 % of control.
In the case of `Cc1ccc(C)c(NC(=O)NCc2ccccc2)c1`, the T/C reads like this: under setting [3], 97 % of control; under setting [4], 106 % of control.
In the case of `COc1cc(OC)c(NC(=O)Oc2ccc3ccccc3c2)cc1Cl`, the T/C is 94 % of control under setting [5], 94 % of control under setting [3] and 97 % of control under setting [4].
In the case of `Cc1cccc(N)n1`, the T/C by setting is: (endpoint: mean survival time, dose: 3.13 mg/kg/injection, schedule: Q04DX002 (ip), vehicle: saline) 94 % of control; (endpoint: mean survival time, dose: 6.25 mg/kg/injection, schedule: Q04DX002 (ip), vehicle: saline) 90 % of control; (endpoint: mean survival time, dose: 12.5 mg/kg/injection, schedule: Q04DX002 (ip), vehicle: saline) 90 % of control.
Consider `CC1=CC(=NN=c2cc(C)n([O-])c(C)c2)C=C(C)[N+]1=O`, for which the T/C by setting is: (endpoint: mean survival time, dose: 12.5 mg/kg/injection, schedule: Q01DX009 (ip), vehicle: saline with Tween-80) 104 % of control; (endpoint: mean survival time, dose: 12.5 mg/kg/injection, schedule: Q01DX009 (ip), vehicle: suspension in saline) 108 % of control; (endpoint: mean survival time, dose: 25.0 mg/kg/injection, schedule: Q01DX009 (ip), vehicle: saline with Tween-80) 108 % of control; (endpoint: mean survival time, dose: 25.0 mg/kg/injection, schedule: Q01DX009 (ip), vehicle: suspension in saline) 110 % of control; under setting [5], 101 % of control; (endpoint: mean survival time, dose: 50.0 mg/kg/injection, schedule: Q01DX009 (ip), vehicle: suspension in saline) 106 % of control. Moreover, the T/C is, setting by setting: (endpoint: mean survival time, dose: 100.0 mg/kg/injection, schedule: Q01DX009 (ip), vehicle: suspension in saline) 104 % of control; under setting [4], 106 % of control; (endpoint: mean survival time, dose: 200.0 mg/kg/injection, schedule: Q01DX009 (ip), vehicle: suspension in saline) 166 % of control.
`C#CC(=O)OCC#CCOC(=O)C#C`: the T/C is 98 % of control (endpoint: mean survival time, dose: 0.75 mg/kg/injection, schedule: Q01DX009 (ip), vehicle: saline with Tween-80); 100 % of control (endpoint: mean survival time, dose: 1.5 mg/kg/injection, schedule: Q01DX009 (ip), vehicle: saline with Tween-80); 98 % of control (endpoint: mean survival time, dose: 3.0 mg/kg/injection, schedule: Q01DX009 (ip), vehicle: saline with Tween-80); 98 % of control (endpoint: mean survival time, dose: 6.0 mg/kg/injection, schedule: Q01DX009 (ip), vehicle: saline with Tween-80); 90 % of control (endpoint: mean survival time, dose: 12.0 mg/kg/injection, schedule: Q01DX009 (ip), vehicle: saline with Tween-80).
For the molecule `O=[N+]([O-])c1cccc(/C=N\[n+]2ccccc2)c1`, the T/C is, setting by setting: (endpoint: mean survival time, dose: 50.0 mg/kg/injection, schedule: Q04DX002 (ip), vehicle: saline with Tween-80) 97 % of control; under setting [1], 100 % of control; under setting [2], 100 % of control.
As for `Cc1cc(Br)c2nsnc2c1[N+](=O)[O-]`, the T/C reads like this: (endpoint: median survival time, dose: 25.0 mg/kg/injection, schedule: Q01DX009 (ip), vehicle: saline with Tween-80) 97 % of control; (endpoint: median survival time, dose: 50.0 mg/kg/injection, schedule: Q01DX009 (ip), vehicle: saline with Tween-80) 100 % of control; (endpoint: median survival time, dose: 100.0 mg/kg/injection, schedule: Q01DX009 (ip), vehicle: saline with Tween-80) 101 % of control; (endpoint: median survival time, dose: 200.0 mg/kg/injection, schedule: Q01DX009 (ip), vehicle: saline with Tween-80) 100 % of control; (endpoint: median survival time, dose: 400.0 mg/kg/injection, schedule: Q01DX009 (ip), vehicle: saline with Tween-80) 101 % of control.
Take `CCN(CC)c1ncnc2nncnc12`: the T/C is 101 % of control (endpoint: mean survival time, dose: 100.0 mg/kg/injection, schedule: Q01DX001 (ip), vehicle: carboxymethylcellulose (CMC)) and 96 % of control (endpoint: mean survival time, dose: 200.0 mg/kg/injection, schedule: Q01DX001 (ip), vehicle: carboxymethylcellulose (CMC)).
Take `O=[N+]([O-])c1cccc(OCCOc2ccccc2)c1`: the T/C is, setting by setting: under setting [6], 98 % of control; under setting [7], 94 % of control; under setting [8], 91 % of control.
With `CN(C)c1n[nH]c(=S)s1`, the T/C runs as follows: under setting [6], 100 % of control; under setting [7], 100 % of control; under setting [8], 88 % of control.
As to `O=[N+]([O-])c1ccc2ccccc2c1-c1c([N+](=O)[O-])ccc2ccccc12`, the T/C reads like this: under setting [5], 92 % of control; under setting [3], 90 % of control; under setting [6], 93 % of control; under setting [4], 90 % of control; under setting [7], 87 % of control.
On to `Cc1cc(NC(=S)SCc2ccc3c(c2)OCO3)ccc1Cl`, for which the T/C is 108 % of control (endpoint: median survival time, dose: 12.5 mg/kg/injection, schedule: Q01DX009 (ip), vehicle: Klucel (hydroxypropylcellulose) (HPC)); 100 % of control and 106 % of control and 110 % of control (endpoint: median survival time, dose: 25.0 mg/kg/injection, schedule: Q01DX009 (ip), vehicle: Klucel (hydroxypropylcellulose) (HPC)); 112 % of control and 113 % of control and 106 % of control (endpoint: median survival time, dose: 50.0 mg/kg/injection, schedule: Q01DX009 (ip), vehicle: Klucel (hydroxypropylcellulose) (HPC)); 114 % of control (endpoint: median survival time, dose: 100.0 mg/kg/injection, schedule: Q01DX009 (ip), vehicle: Klucel (hydroxypropylcellulose) (HPC)); 120 % of control (endpoint: median survival time, dose: 200.0 mg/kg/injection, schedule: Q01DX009 (ip), vehicle: Klucel (hydroxypropylcellulose) (HPC)).
Take `CC(C)c1ccc(C(=O)O)cc1S(=O)(=O)Cl`: the T/C was 98 % of control (endpoint: mean survival time, dose: 25.0 mg/kg/injection, schedule: Q04DX003 (ip), vehicle: saline); 109 % of control (endpoint: mean survival time, dose: 50.0 mg/kg/injection, schedule: Q04DX003 (ip), vehicle: saline); 100 % of control and 107 % of control (endpoint: mean survival time, dose: 100.0 mg/kg/injection, schedule: Q04DX003 (ip), vehicle: saline).
Regarding `CC(=O)OCC(=O)[C@@]1(O)CC[C@H]2[C@@H]3CCC4=CC(=O)C=C[C@]4(C)[C@H]3C(=O)C[C@@]21C`, the T/C is 101 % of control (endpoint: mean survival time, dose: 12.5 mg/kg/injection, schedule: Q04DX003 (ip), vehicle: Klucel (hydroxypropylcellulose) (HPC)); 109 % of control (endpoint: mean survival time, dose: 25.0 mg/kg/injection, schedule: Q04DX003 (ip), vehicle: Klucel (hydroxypropylcellulose) (HPC)); 100 % of control (endpoint: mean survival time, dose: 50.0 mg/kg/injection, schedule: Q04DX003 (ip), vehicle: Klucel (hydroxypropylcellulose) (HPC)).
For the molecule `CC1(C)CC(=O)NC1=O`, the T/C was 100 % of control (endpoint: mean survival time, dose: 100.0 mg/kg/injection, schedule: Q01DX009 (ip), vehicle: saline); 102 % of control (endpoint: mean survival time, dose: 200.0 mg/kg/injection, schedule: Q01DX009 (ip), vehicle: saline); 94 % of control (endpoint: mean survival time, dose: 400.0 mg/kg/injection, schedule: Q01DX009 (ip), vehicle: saline).
